In ChEMBL document CHEMBL3603734, “Design and biological evaluation of novel quinolone-based metronidazole derivatives as potent Cu(2+) mediated DNA-targeting antibacterial agents” (Bioorg Med Chem Lett, 2015):
Converted amounts (≈) assume the structure as drawn.

What was measured:
Escherichia coli = experiment: Antibacterial activity against Escherichia coli JM109 after 24 hrs by microbroth dilution method; format: functional; conditions: JM109, 24 h
Bacillus = experiment: Antibacterial activity against Bacillus proteus ATCC 13315 after 24 hrs by microbroth dilution method; format: functional; conditions: ATCC 13315, 24 h
Pseudomonas aeruginosa = experiment: Antibacterial activity against Pseudomonas aeruginosa ATCC 27853 after 24 hrs by microbroth dilution method; format: functional; conditions: ATCC 27853, 24 h
Salmonella enterica = experiment: Antibacterial activity against Salmonella enterica ATCC 14028 after 24 hrs by microbroth dilution method; format: functional; conditions: ATCC 14028, 24 h
Staphylococcus aureus [1] = experiment: Antibacterial activity against methicillin-resistant Staphylococcus aureus N315 after 24 hrs by microbroth dilution method; format: functional; conditions: N315, 24 h
Staphylococcus aureus [2] = experiment: Antibacterial activity against Staphylococcus aureus ATCC 25923 after 24 hrs by microbroth dilution method; format: functional; conditions: ATCC 25923, 24 h
Bacillus spizizenii = experiment: Antibacterial activity against Bacillus subtilis ATCC 6633 after 24 hrs by microbroth dilution method; format: functional; conditions: ATCC 6633, 24 h
Micrococcus luteus = experiment: Antibacterial activity against Micrococcus luteus ATCC 4698 after 24 hrs by microbroth dilution method; format: functional; conditions: NCTC 2665, 24 h
Cyberlindnera jadinii = experiment: Antifungal activity against Candida utilis ATCC 9950 after 24 hrs by microbroth dilution method; format: functional; conditions: Williopsis jadinii, ATCC 9950, 24 h
Aspergillus flavus = experiment: Antifungal activity against Aspergillus flavus ATCC 204304 after 24 hrs by microbroth dilution method; format: functional; conditions: ATCC 204304, 24 h
Saccharomyces cerevisiae = experiment: Antifungal activity against Saccharomyces cerevisiae ATCC 9763 after 24 hrs by microbroth dilution method; format: functional; conditions: ATCC 9763, 24 h
Candida albicans = experiment: Antifungal activity against Candida albicans ATCC 10231 after 24 hrs by microbroth dilution method; format: functional; conditions: ATCC 10231, 24 h
Pichia norvegensis = experiment: Antifungal activity against Candida mycoderma ATCC 9888 after 24 hrs by microbroth dilution method; format: functional; conditions: ATCC 9888, 24 h
[3] = Ionization constant, pKa of the compound by UV spectroscopic analysis; format: physicochemical

Row | Compound | MIC (Escherichia coli) | MIC (Bacillus) | MIC (Pseudomonas aeruginosa) | MIC (Salmonella enterica) | MIC (Staphylococcus aureus [1]) | MIC (Staphylococcus aureus [2]) | MIC (Bacillus spizizenii) | MIC (Micrococcus luteus) | MIC (Cyberlindnera jadinii) | MIC (Aspergillus flavus) | MIC (Saccharomyces cerevisiae) | MIC (Candida albicans) | MIC (Pichia norvegensis) | pKa [3]
1 | O=C(O)c1cn(C2CC2)c2cc(N3CCN(CC4CO4)CC3)c(F)cc2c1=O (centres undefined) | 1 µg/mL (≈ 2.58 µM) | 4 µg/mL (≈ 10.3 µM) | 2 µg/mL (≈ 5.16 µM) | 2 µg/mL (≈ 5.16 µM) | 1 µg/mL (≈ 2.58 µM) | 4 µg/mL (≈ 10.3 µM) | 8 µg/mL (≈ 20.6 µM) | 2 µg/mL (≈ 5.16 µM) | 2 µg/mL (≈ 5.16 µM) | 1 µg/mL (≈ 2.58 µM) | 1 µg/mL (≈ 2.58 µM) | 2 µg/mL (≈ 5.16 µM) | 1 µg/mL (≈ 2.58 µM) | 
2 | CCn1cc(C(=O)O)c(=O)c2cc(F)c(N3CCN(CC(O)Cn4c(C)nc(N5CCOCC5)c4[N+](=O)[O-])CC3)cc21 (centres undefined) | 64 µg/mL (≈ 109 µM) | 32 µg/mL (≈ 54.5 µM) | 2 µg/mL (≈ 3.4 µM) | 32 µg/mL (≈ 54.5 µM) | 4 µg/mL (≈ 6.81 µM) | 32 µg/mL (≈ 54.5 µM) | 16 µg/mL (≈ 27.2 µM) | 8 µg/mL (≈ 13.6 µM) | 16 µg/mL (≈ 27.2 µM) | 16 µg/mL (≈ 27.2 µM) | 16 µg/mL (≈ 27.2 µM) | 16 µg/mL (≈ 27.2 µM) | 64 µg/mL (≈ 109 µM) | 6.64
3 | Cc1ncc([N+](=O)[O-])n1CC(O)CN1CCN(c2cc3c(cc2F)c(=O)c(C(=O)O)cn3C2CC2)CC1 (centres undefined) | 16 µg/mL (≈ 31.1 µM) | 4 µg/mL (≈ 7.77 µM) | 0.5 µg/mL (≈ 0.972 µM) | 4 µg/mL (≈ 7.77 µM) | 2 µg/mL (≈ 3.89 µM) | 16 µg/mL (≈ 31.1 µM) | 4 µg/mL (≈ 7.77 µM) | 8 µg/mL (≈ 15.5 µM) | 32 µg/mL (≈ 62.2 µM) | 16 µg/mL (≈ 31.1 µM) | 32 µg/mL (≈ 62.2 µM) | 128 µg/mL (≈ 249 µM) | 64 µg/mL (≈ 124 µM) | 6.67
4 | CCn1cc(C(=O)O)c(=O)c2cc(F)c(N3CCN(CC(O)Cn4c(C)nc(N5CCCC5)c4[N+](=O)[O-])CC3)cc21 (centres undefined) | 128 µg/mL (≈ 224 µM) | 64 µg/mL (≈ 112 µM) | 4 µg/mL (≈ 7 µM) | 64 µg/mL (≈ 112 µM) | 32 µg/mL (≈ 56 µM) | 64 µg/mL (≈ 112 µM) | 64 µg/mL (≈ 112 µM) | 64 µg/mL (≈ 112 µM) | 32 µg/mL (≈ 56 µM) | 16 µg/mL (≈ 28 µM) | 8 µg/mL (≈ 14 µM) | 32 µg/mL (≈ 56 µM) | 16 µg/mL (≈ 28 µM) | 6.68
5 | Cc1nc(N2CCCC2)c([N+](=O)[O-])n1CC(O)CNC1CCN(c2c(F)cc3c(=O)c(C(=O)O)cn(C4CC4)c3c2Cl)C1 (centres undefined) | 8 µg/mL (≈ 12.9 µM) | 0.5 µg/mL (≈ 0.809 µM) | 0.5 µg/mL (≈ 0.809 µM) | 8 µg/mL (≈ 12.9 µM) | 1 µg/mL (≈ 1.62 µM) | 1 µg/mL (≈ 1.62 µM) | 1 µg/mL (≈ 1.62 µM) | 4 µg/mL (≈ 6.47 µM) | 1 µg/mL (≈ 1.62 µM) | 2 µg/mL (≈ 3.24 µM) | 4 µg/mL (≈ 6.47 µM) | 2 µg/mL (≈ 3.24 µM) | 4 µg/mL (≈ 6.47 µM) | 6.54
6 | CCn1cc(C(=O)O)c(=O)c2cc(F)c(N3CCN(CC(O)Cn4c([N+](=O)[O-])cnc4C)CC3)cc21 (centres undefined) | 32 µg/mL (≈ 63.7 µM) | 16 µg/mL (≈ 31.8 µM) | 2 µg/mL (≈ 3.98 µM) | 16 µg/mL (≈ 31.8 µM) | 4 µg/mL (≈ 7.96 µM) | 16 µg/mL (≈ 31.8 µM) | 16 µg/mL (≈ 31.8 µM) | 16 µg/mL (≈ 31.8 µM) | 64 µg/mL (≈ 127 µM) | 32 µg/mL (≈ 63.7 µM) | 32 µg/mL (≈ 63.7 µM) | 128 µg/mL (≈ 255 µM) | 64 µg/mL (≈ 127 µM) | 6.57
7 | Cc1nc(N2CCOCC2)c([N+](=O)[O-])n1CC(O)CN1CCN(c2cc3c(cc2F)c(=O)c(C(=O)O)cn3C2CC2)CC1 (centres undefined) | 16 µg/mL (≈ 26.7 µM) | 4 µg/mL (≈ 6.67 µM) | 0.5 µg/mL (≈ 0.834 µM) | 8 µg/mL (≈ 13.3 µM) | 4 µg/mL (≈ 6.67 µM) | 16 µg/mL (≈ 26.7 µM) | 8 µg/mL (≈ 13.3 µM) | 16 µg/mL (≈ 26.7 µM) | 4 µg/mL (≈ 6.67 µM) | 8 µg/mL (≈ 13.3 µM) | 16 µg/mL (≈ 26.7 µM) | 32 µg/mL (≈ 53.4 µM) | 128 µg/mL (≈ 213 µM) | 6.77
8 | O=C(O)c1cn(C2CC2)c2c(Cl)c(NC3CCN(CC4CO4)C3)c(F)cc2c1=O (centres undefined) | 0.5 µg/mL (≈ 1.19 µM) | 0.25 µg/mL (≈ 0.593 µM) | 0.5 µg/mL (≈ 1.19 µM) | 1 µg/mL (≈ 2.37 µM) | 2 µg/mL (≈ 4.74 µM) | 0.5 µg/mL (≈ 1.19 µM) | 0.25 µg/mL (≈ 0.593 µM) | 0.25 µg/mL (≈ 0.593 µM) | 0.5 µg/mL (≈ 1.19 µM) | 0.5 µg/mL (≈ 1.19 µM) | 0.25 µg/mL (≈ 0.593 µM) | 2 µg/mL (≈ 4.74 µM) | 2 µg/mL (≈ 4.74 µM) | 
9 | Cc1nc(N2CCCCC2)c([N+](=O)[O-])n1CC(O)CNC1CCN(c2c(F)cc3c(=O)c(C(=O)O)cn(C4CC4)c3c2Cl)C1 (centres undefined) | 32 µg/mL (≈ 50.6 µM) | 1 µg/mL (≈ 1.58 µM) | 1 µg/mL (≈ 1.58 µM) | 16 µg/mL (≈ 25.3 µM) | 2 µg/mL (≈ 3.16 µM) | 8 µg/mL (≈ 12.7 µM) | 8 µg/mL (≈ 12.7 µM) | 16 µg/mL (≈ 25.3 µM) | 2 µg/mL (≈ 3.16 µM) | 4 µg/mL (≈ 6.33 µM) | 8 µg/mL (≈ 12.7 µM) | 4 µg/mL (≈ 6.33 µM) | 8 µg/mL (≈ 12.7 µM) | 6.69
